From patent publication US9884063B2, “Amido-substituted azole compounds” (Bayer Pharma Aktiengesellschaft, priority 2014, dated 2018)

Columns and labels:
TNKS1 = target: T1, TNKS1 (Homo sapiens, UniProt O95271); assay: Modified TNKS1 Assay 2 (auto-parsylation, [3H]-NAD+ SPA); type: biochemical; conditions: 6 nM TNKS1, 96 well
T1 sequence (O95271 1-1327): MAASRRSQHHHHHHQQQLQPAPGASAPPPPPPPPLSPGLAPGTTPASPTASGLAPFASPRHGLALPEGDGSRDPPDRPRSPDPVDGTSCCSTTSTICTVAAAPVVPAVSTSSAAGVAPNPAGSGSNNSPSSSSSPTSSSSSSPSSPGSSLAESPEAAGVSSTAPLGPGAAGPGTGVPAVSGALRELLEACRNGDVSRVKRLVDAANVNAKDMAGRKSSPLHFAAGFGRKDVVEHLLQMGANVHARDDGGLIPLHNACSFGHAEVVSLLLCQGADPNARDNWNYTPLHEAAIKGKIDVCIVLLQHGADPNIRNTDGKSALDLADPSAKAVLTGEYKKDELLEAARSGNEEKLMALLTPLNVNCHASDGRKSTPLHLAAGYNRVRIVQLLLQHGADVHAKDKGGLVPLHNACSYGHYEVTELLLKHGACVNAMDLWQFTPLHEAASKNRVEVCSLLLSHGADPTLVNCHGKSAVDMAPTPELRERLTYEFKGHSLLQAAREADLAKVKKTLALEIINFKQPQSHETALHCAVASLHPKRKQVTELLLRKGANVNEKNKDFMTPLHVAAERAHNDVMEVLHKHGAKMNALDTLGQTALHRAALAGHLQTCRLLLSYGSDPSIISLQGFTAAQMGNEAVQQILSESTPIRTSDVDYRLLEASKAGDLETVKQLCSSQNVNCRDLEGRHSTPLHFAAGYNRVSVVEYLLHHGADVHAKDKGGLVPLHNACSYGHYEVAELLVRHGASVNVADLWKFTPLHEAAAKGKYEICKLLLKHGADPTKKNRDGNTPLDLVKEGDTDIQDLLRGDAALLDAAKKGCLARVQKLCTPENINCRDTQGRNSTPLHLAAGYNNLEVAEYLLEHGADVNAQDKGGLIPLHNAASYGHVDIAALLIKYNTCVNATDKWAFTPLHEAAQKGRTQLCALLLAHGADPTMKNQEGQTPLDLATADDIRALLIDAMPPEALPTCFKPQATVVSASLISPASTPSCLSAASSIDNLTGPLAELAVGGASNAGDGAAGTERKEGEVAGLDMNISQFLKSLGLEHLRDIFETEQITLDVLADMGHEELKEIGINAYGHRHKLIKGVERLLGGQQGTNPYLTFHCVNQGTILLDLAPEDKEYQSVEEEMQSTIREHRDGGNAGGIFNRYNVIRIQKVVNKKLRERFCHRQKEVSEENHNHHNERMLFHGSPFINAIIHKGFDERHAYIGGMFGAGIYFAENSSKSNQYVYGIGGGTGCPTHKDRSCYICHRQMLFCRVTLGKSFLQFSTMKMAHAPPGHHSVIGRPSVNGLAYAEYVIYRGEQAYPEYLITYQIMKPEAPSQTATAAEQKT

[1] = system: wildtype Wnt signaling cascade; assay: HEK293 TOP Assay (Super TopFlash luciferase reporter, Wnt-3a stimulated); type: cell-based; conditions: Homo sapiens, HEK293, 16 h, HEK293 TOP reporter cell line, Wnt-3a at EC50, 16 hours incubation, compound dilution series 50 μM to 15 nM
In short: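 Compounds (50 μM down to 15 nM, 3.16-fold steps, in CAFTY buffer pH 7.4, 2 mM Ca2+, 0.01% BSA) tested in parallel on TOP and FOP HEK293 reporter lines to define selective wildtype Wnt inhibition. Pathway driven by recombinant human Wnt-3a applied at 2500–5 ng/ml in two-fold dilutions.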

Work on `CNC(=O)c1nc[nH]c1C(=O)Nc1ccc(NC(=O)c2cc(F)ccc2OC)cc1` [Example 364, N^5-{4-[(5-fluoro-2-methoxybenzoyl)amino]phenyl}-N^4-methyl-1H-imidazole-4,5-dicarboxamide] yielded an IC50 (TNKS1) of 6100 nM and an IC50 [1] of 50000 nM.
In the case of `CNC(=O)c1nc[nH]c1C(=O)Nc1ccc(NC(=O)c2cncc(C)c2)cc1` [Example 366, N^4-methyl-N^5-(4-{[(5-methylpyridin-3-yl)carbonyl]amino}phenyl)-1H-imidazole-4,5-dicarboxamide], the IC50 (TNKS1) is reported as > 10000 nM and the IC50 [1] is reported as 50000 nM.
For `CNC(=O)c1nc[nH]c1C(=O)Nc1ccc(NC(=O)c2cccc(F)c2OC)cc1` [Example 367, N^5-{4-[(3-fluoro-2-methoxybenzoyl)amino]phenyl}-N^4-methyl-1H-imidazole-4,5-dicarboxamide], the IC50 (TNKS1) was > 10000 nM and the IC50 [1] was 12400 nM.
In the case of `CNC(=O)c1nc[nH]c1C(=O)Nc1ccc(NC(=O)c2cccc(F)c2Cl)cc1` [Example 370, N^5-{4-[(2-chloro-3-fluorobenzoyl)amino]phenyl}-N^4-methyl-1H-imidazole-4,5-dicarboxamide], the IC50 (TNKS1) is reported as > 10000 nM and the IC50 [1] is reported as 4950 nM.
`CNC(=O)c1nc[nH]c1C(=O)Nc1ccc(NC(=O)c2nccnc2Cl)cc1` [Example 372, N^5-(4-{[(3-chloropyrazin-2-yl)carbonyl]amino}phenyl)-N^4-methyl-1H-imidazole-4,5-dicarboxamide] was tested, and the IC50 (TNKS1) was 5700 nM and the IC50 [1] was 9700 nM.
Work on `CNC(=O)c1nc[nH]c1C(=O)Nc1ccc(NC(=O)c2c(F)ccc(F)c2Cl)cc1` [Example 374, N^5-{4-[(2-chloro-3,6-difluorobenzoyl)amino]phenyl}-N^4-methyl-1H-imidazole-4,5-dicarboxamide] yielded an IC50 (TNKS1) of 1600 nM and an IC50 [1] of 1800 nM.
With `CNC(=O)c1nc[nH]c1C(=O)Nc1ccc(NC(=O)c2c(C)cccc2F)cc1` [Example 375, N^5-{4-[(2-fluoro-6-methylbenzoyl)amino]phenyl}-N^4-methyl-1H-imidazole-4,5-dicarboxamide] the IC50 (TNKS1) was 1200 nM and the IC50 [1] was 1120 nM.
`CNC(=O)c1nc[nH]c1C(=O)Nc1ccc(NC(=O)c2ccon2)cc1` [Example 376, N^4-methyl-N^5-{4-[(1,2-oxazol-3-ylcarbonyl)amino]phenyl}-1H-imidazole-4,5-dicarboxamide] was tested, and the IC50 (TNKS1) was > 10000 nM and the IC50 [1] was 50000 nM.
In the case of `CNC(=O)c1nc[nH]c1C(=O)Nc1ccc(NC(=O)c2cc(F)c(F)cc2C)cc1` [Example 377, N^5-{4-[(4,5-difluoro-2-methylbenzoyl)amino]phenyl}-N^4-methyl-1H-imidazole-4,5-dicarboxamide], the IC50 (TNKS1) is reported as 470 nM and the IC50 [1] is reported as 950 nM.
Compound `O=C(Nc1ccc(NC(=O)c2nc[nH]c2C(=O)NCCN2CCCCC2)cc1)c1ccccc1Cl` [Example 381, N^4-{4-[(2-chlorobenzoyl)amino]phenyl}-N^5-[2-(piperidin-1-yl)ethyl]-1H-imidazole-4,5-dicarboxamide] has an IC50 (TNKS1) of 20 nM and an IC50 [1] of 80 nM.
For `O=C(Nc1ccc(NC(=O)c2[nH]cnc2C(=O)NCCc2ccccc2)cc1)c1ccc(F)cc1Cl` [Example 384, N^5-{4-[(2-chloro-4-fluorobenzoyl)amino]phenyl}-N^4-(2-phenylethyl)-1H-imidazole-4,5-dicarboxamide], the IC50 (TNKS1) was 1500 nM and the IC50 [1] was 1900 nM.
With `O=C(Nc1ccc(NC(=O)c2[nH]cnc2C(=O)NCCc2ccccn2)cc1)c1ccc(F)cc1Cl` [Example 387, N^5-{4-[(2-chloro-4-fluorobenzoyl)amino]phenyl}-N^4-[2-(pyridin-2-yl)ethyl]-1H-imidazole-4,5-dicarboxamide] the IC50 (TNKS1) was 100 nM and the IC50 [1] was 800 nM.
In the case of `CC(C)N(CCNC(=O)c1nc[nH]c1C(=O)Nc1ccc(NC(=O)c2ccc(F)cc2Cl)cc1)C(C)C` [Example 389, N^5-{4-[(2-chloro-4-fluorobenzoyl)amino]phenyl}-N^4-{2-[di(propan-2-yl)amino]ethyl}-1H-imidazole-4,5-dicarboxamide], the IC50 (TNKS1) is reported as 150 nM and the IC50 [1] is reported as 750 nM.
`CC1(C)CC(NC(=O)c2nc[nH]c2C(=O)Nc2ccc(NC(=O)c3ccc(F)cc3Cl)cc2)CCO1` (stereo not shown) [Example 391, N^5-{4-[(2-chloro-4-fluorobenzoyl)amino]phenyl}-N^4-(2,2-dimethyltetrahydro-2H-pyran-4-yl)-1H-imidazole-4,5-dicarboxamide] was tested, and the IC50 (TNKS1) was 400 nM and the IC50 [1] was 670 nM.
With `CCN(CC)CCCCNC(=O)c1nc[nH]c1C(=O)Nc1ccc(NC(=O)c2ccc(F)cc2Cl)cc1` [Example 393, N^5-{4-[(2-chloro-4-fluorobenzoyl)amino]phenyl}-N^4-[4-(diethylamino)butyl]-1H-imidazole-4,5-dicarboxamide] the IC50 (TNKS1) was 300 nM and the IC50 [1] was 880 nM.
With `O=C(Nc1ccc(NC(=O)c2[nH]cnc2C(=O)NCCc2ccncc2)cc1)c1ccc(F)cc1Cl` [Example 394, N^5-{4-[(2-chloro-4-fluorobenzoyl)amino]phenyl}-N^4-[2-(pyridin-4-yl)ethyl]-1H-imidazole-4,5-dicarboxamide] the IC50 (TNKS1) was 50 nM and the IC50 [1] was 700 nM.
Work on `O=C(Nc1ccc(NC(=O)c2nc[nH]c2C(=O)NCC2CCOCC2)cc1)c1ccc(F)cc1Cl` [Example 397, N^5-{4-[(2-chloro-4-fluorobenzoyl)amino]phenyl}-N^4-(tetrahydro-2H-pyran-4-ylmethyl)-1H-imidazole-4,5-dicarboxamide] yielded an IC50 (TNKS1) of 240 nM and an IC50 [1] of 460 nM.
In the case of `O=C(Nc1ccc(NC(=O)c2[nH]cnc2C(=O)NCCc2cccnc2)cc1)c1ccc(F)cc1Cl` [Example 405, N^5-{4-[(2-chloro-4-fluorobenzoyl)amino]phenyl}-N^4-[2-(pyridin-3-yl)ethyl]-1H-imidazole-4,5-dicarboxamide], the IC50 (TNKS1) is reported as 100 nM and the IC50 [1] is reported as 710 nM.
For `CCN1CCC[C@@H]1CNC(=O)c1nc[nH]c1C(=O)Nc1ccc(NC(=O)c2ccc(F)cc2Cl)cc1` [Example 413, N^5-{4-[(2-chloro-4-fluorobenzoyl)amino]phenyl}-N^4-{[(2R)-1-ethylpyrrolidin-2-yl]methyl}-1H-imidazole-4,5-dicarboxamide], the IC50 (TNKS1) was 80 nM and the IC50 [1] was 700 nM.
For `CN1CCN(CC(C)(C)CNC(=O)c2nc[nH]c2C(=O)Nc2ccc(NC(=O)c3ccc(F)cc3Cl)cc2)CC1` [Example 415, N^5-{4-[(2-chloro-4-fluorobenzoyl)amino]phenyl}-N^4-[2,2-dimethyl-3-(4-methylpiperazin-1-yl)propyl]-1H-imidazole-4,5-dicarboxamide], the IC50 (TNKS1) was 70 nM and the IC50 [1] was 560 nM.
